# Laboratory results taken from patent US10576085B2, “Substituted aminopurine compounds, compositions thereof, and methods of treatment therewith” (Signal Pharmaceuticals, LLC, priority 2016, dated 2020).
# Tested on: cancer cell lines of Table 2
# Assay: Multiplexed cytotoxicity assay: apoptosis (activated caspase-3; Cal_X2, Cal_X5, Max_Fold_Change)
# Format: cell-based
# Method: Cells are grown in RPMI1640, 10% FBS, 2 mM L-alanyl-L-Glutamine, 1 mM Na pyruvate or a special medium in a humidified atmosphere of 5% CO2 at 37° C. Cells are seeded into 384-well plates and incubated in a humidified atmosphere of 5% CO2 at 37° C. Compounds are added 24 h post cell seeding. At the same time, a time zero untreated cell plate is generated. After a 72 hour incubation period, cells are fixed and stained with fluorescently labeled antibodies and nuclear dye to allow visualization of nuclei, apoptotic cells and mitotic cells. Apoptotic cells are detected using an anti-active caspase-3 antibody. Mitotic cells are detected using an anti phospho-histone-3 antibody. Compounds are serially diluted 3.16-fold and assayed over 10 concentrations in a final assay concentration of 0.1% DMSO from the highest test concentration of 10 μM. Automated fluorescence microscopy was carried out using a Molecular Devices ImageXpress Micro XL high-content imager, and images are collected with a 4× objective.
# The activated caspase-3 marker labels cells from early to late stage apoptosis. Concentrations of test compound that cause a 5-fold induction in the caspase-3 signal (Cal_X5) indicate significant apoptosis induction. The maximal induction of caspase 3 by compound in comparison with DMSO control is reported as Max_Fold_Change.
# In Another Experiment, Cells were Grown in RPMI1640, 10% FBS, 2 mM L-alanyl-L-Glutamine, 1 mM Na pyruvate or a special medium in a humidified atmosphere of 5% CO2 at 37° C. Cells were seeded into 384-well plates and incubated in a humidified atmosphere of 5% CO2 at 37° C. Compounds were added 24 h post cell seeding. At the same time, a time zero untreated cell plate was generated. After a 72 hour incubation period, cells were fixed and stained with fluorescently labeled antibodies and nuclear dye to allow visualization of nuclei, apoptotic cells and mitotic cells. Apoptotic cells were detected using an anti-active caspase-3 antibody. Mitotic cells were detected using an anti phospho-histone-3 antibody. Compounds were serially diluted 3.16-fold and assayed over 10 concentrations in a final assay concentration of 0.1% DMSO from the highest test concentration of 10 μM. Automated fluorescence microscopy was carried out using a Molecular Devices ImageXpress Micro XL high-content imager, and images were collected with a 4× objective.
# The activated caspase-3 marker labels cells from early to late stage apoptosis. Concentrations of test compound that cause a 2-fold (Cal-X2) or 5-fold induction in the caspase-3 signal (Cal_X5) indicated significant apoptosis induction. The maximal induction of caspase 3 by compound in comparison with DMSO control was reported as Max_Fold_Change.
compound,measurement,setting,value
"C[C@]1(C(N)=O)CC[C@@H](n2c(Nc3c(Cl)cc(Cl)cc3Cl)nc3cnc(N[C@@H]4CCOC[C@H]4F)nc32)CC1 [Compound 1, cis-4-[2-{[(3S,4R)-3-fluorooxan-4-yl]amino}-8-(2,4,6-trichloroanilino)-9H-purin-9-yl]-1-methyl cyclohexane-1-carboxamide]",CalX2,"HS611T, Lymphoma",2.8507 µM
same,CalX5,"HS611T, Lymphoma",10 µM
same,Max fold change,"HS611T, Lymphoma",3.84
same,CalX2,"HS688AT, Skin, Melanoma",10 µM
same,CalX5,"HS688AT, Skin, Melanoma",10 µM
same,Max fold change,"HS688AT, Skin, Melanoma",1.61
same,CalX2,"HS695T, Skin, Melanoma",0.0253 µM
same,CalX5,"HS695T, Skin, Melanoma",0.0727 µM
same,Max fold change,"HS695T, Skin, Melanoma",22.05
same,CalX2,"HS852T, Skin, Melanoma",0.05 µM
same,CalX5,"HS852T, Skin, Melanoma",0.234 µM
same,Max fold change,"HS852T, Skin, Melanoma",6.51
same,CalX2,"HT1197, Bladder",0.1601 µM
same,CalX5,"HT1197, Bladder",10 µM
same,Max fold change,"HT1197, Bladder",4.16
same,CalX2,"HT1376, Bladder",0.0524 µM
same,CalX5,"HT1376, Bladder",0.167 µM
same,Max fold change,"HT1376, Bladder",10.87
same,CalX2,"HT, Lymphoma",8.6354 µM
same,CalX5,"HT, Lymphoma",10 µM
same,Max fold change,"HT, Lymphoma",2.44
same,CalX2,"HUCCT1, Liver",0.0222 µM
same,CalX5,"HUCCT1, Liver",0.0406 µM
same,Max fold change,"HUCCT1, Liver",11.54
same,CalX2,"HUH6CLONE5, Liver",0.0631 µM
same,CalX5,"HUH6CLONE5, Liver",0.302 µM
same,Max fold change,"HUH6CLONE5, Liver",8.25
same,CalX2,"J82, Bladder",2.4365 µM
same,CalX5,"J82, Bladder",10 µM
same,Max fold change,"J82, Bladder",3.17
same,CalX2,"JEKO1, Lymphoma",4.3369 µM
same,CalX5,"JEKO1, Lymphoma",10 µM
same,Max fold change,"JEKO1, Lymphoma",3.11
same,CalX2,"JIYOYE, Lymphoma",4.4004 µM
same,CalX5,"JIYOYE, Lymphoma",5.35 µM
same,Max fold change,"JIYOYE, Lymphoma",11.1
same,CalX2,"JRT3T35, Leukemia",2.6364 µM
same,CalX5,"JRT3T35, Leukemia",3.8 µM
same,Max fold change,"JRT3T35, Leukemia",14.26
same,CalX2,"JURKAT, Leukemia",1.6173 µM
same,CalX5,"JURKAT, Leukemia",3.28 µM
same,Max fold change,"JURKAT, Leukemia",14.48
same,CalX2,"K562, Leukemia",2.9298 µM
same,CalX5,"K562, Leukemia",4.86 µM
same,Max fold change,"K562, Leukemia",51.89
same,CalX2,"KG1, Leukemia",2.5811 µM
same,CalX5,"KG1, Leukemia",10 µM
same,Max fold change,"KG1, Leukemia",2.5
same,CalX2,"KU812, Leukemia",0.03 µM
same,CalX5,"KU812, Leukemia",8.02 µM
same,Max fold change,"KU812, Leukemia",5.63
same,CalX2,"L428, Lymphoma",4.2384 µM
same,CalX5,"L428, Lymphoma",5.88 µM
same,Max fold change,"L428, Lymphoma",7.51
same,CalX2,"MC116, Lymphoma",2.8763 µM
same,CalX5,"MC116, Lymphoma",5.18 µM
same,Max fold change,"MC116, Lymphoma",9.46
same,CalX2,"MEG01, Leukemia",0.5718 µM
same,CalX5,"MEG01, Leukemia",10 µM
same,Max fold change,"MEG01, Leukemia",2.77
same,CalX2,"MHHPREB1, Leukemia",5.1142 µM
same,CalX5,"MHHPREB1, Leukemia",7.66 µM
same,Max fold change,"MHHPREB1, Leukemia",11.43
same,CalX2,"MOLT3, Leukemia",5.88 µM
same,CalX5,"MOLT3, Leukemia",10 µM
same,Max fold change,"MOLT3, Leukemia",3.63
same,CalX2,"MOLT16, Leukemia",2.4102 µM
same,CalX5,"MOLT16, Leukemia",4.97 µM
same,Max fold change,"MOLT16, Leukemia",8.06
same,CalX2,"MV411, Leukemia",0.0933 µM
same,CalX5,"MV411, Leukemia",1.15 µM
same,Max fold change,"MV411, Leukemia",8.12
same,CalX2,"MX1, Leukemia",1.1016 µM
same,CalX5,"MX1, Leukemia",10 µM
same,Max fold change,"MX1, Leukemia",3.78
same,CalX2,"NALM6, Leukemia",0.1241 µM
same,CalX5,"NALM6, Leukemia",10 µM
same,Max fold change,"NALM6, Leukemia",5
same,CalX2,"NAMALWA, Lymphoma",5.9431 µM
same,CalX5,"NAMALWA, Lymphoma",10 µM
same,Max fold change,"NAMALWA, Lymphoma",2.68
same,CalX2,"OCUG1, Liver",0.0848 µM
same,CalX5,"OCUG1, Liver",0.49 µM
same,Max fold change,"OCUG1, Liver",5.49
same,CalX2,"RAJI, Lymphoma",2.5564 µM
same,CalX5,"RAJI, Lymphoma",4.07 µM
same,Max fold change,"RAJI, Lymphoma",24.81
same,CalX2,"RAMOSRA1, Lymphoma",4.5496 µM
same,CalX5,"RAMOSRA1, Lymphoma",7.39 µM
same,Max fold change,"RAMOSRA1, Lymphoma",25.1
same,CalX2,"REC1, Lymphoma",10 µM
same,CalX5,"REC1, Lymphoma",10 µM
same,Max fold change,"REC1, Lymphoma",1.86
same,CalX2,"RPMI6666, Lymphoma",3.0419 µM
same,CalX5,"RPMI6666, Lymphoma",4.37 µM
same,Max fold change,"RPMI6666, Lymphoma",26.35
same,CalX2,"RS411, Leukemia",3.8025 µM
same,CalX5,"RS411, Leukemia",8.4 µM
same,Max fold change,"RS411, Leukemia",5.83
same,CalX2,"SCABER, Bladder",0.0086 µM
same,CalX5,"SCABER, Bladder",0.0506 µM
same,Max fold change,"SCABER, Bladder",29.47
same,CalX2,"SCC9, Head and Neck",0.6679 µM
same,CalX5,"SCC9, Head and Neck",3.86 µM
same,Max fold change,"SCC9, Head and Neck",9.58
same,CalX2,"SKNEP1, Kidney",10 µM
same,CalX5,"SKNEP1, Kidney",10 µM
same,Max fold change,"SKNEP1, Kidney",1.15
same,CalX2,"SNU423, Liver",0.0909 µM
same,CalX5,"SNU423, Liver",1.65 µM
same,Max fold change,"SNU423, Liver",7.32
same,CalX2,"SR, Lymphoma",1.2842 µM
same,CalX5,"SR, Lymphoma",3.07 µM
same,Max fold change,"SR, Lymphoma",33.52
same,CalX2,"ST486, Lymphoma",4.2422 µM
same,CalX5,"ST486, Lymphoma",6.11 µM
same,Max fold change,"ST486, Lymphoma",10.85
same,CalX2,"SUDHL4, Lymphoma",2.5668 µM
same,CalX5,"SUDHL4, Lymphoma",4.83 µM
same,Max fold change,"SUDHL4, Lymphoma",10.75
same,CalX2,"SUDHL5, Lymphoma",1.6359 µM
same,CalX5,"SUDHL5, Lymphoma",4.54 µM
same,Max fold change,"SUDHL5, Lymphoma",10.37
same,CalX2,"SUDHL8, Lymphoma",1.2344 µM
same,CalX5,"SUDHL8, Lymphoma",4.19 µM
same,Max fold change,"SUDHL8, Lymphoma",10.79
same,CalX2,"SUDHL10, Lymphoma",3.611 µM
same,CalX5,"SUDHL10, Lymphoma",4.87 µM
same,Max fold change,"SUDHL10, Lymphoma",11.63
same,CalX2,"SUPT1, Lymphoma",4.5476 µM
same,CalX5,"SUPT1, Lymphoma",9.21 µM
same,Max fold change,"SUPT1, Lymphoma",5.76
same,CalX2,"T24, Bladder",4.5443 µM
same,CalX5,"T24, Bladder",10 µM
same,Max fold change,"T24, Bladder",2.61
same,CalX2,"TCCSUP, Bladder",5.6435 µM
same,CalX5,"TCCSUP, Bladder",10 µM
same,Max fold change,"TCCSUP, Bladder",3.67
same,CalX2,"TF1, Leukemia",0.006 µM
same,CalX5,"TF1, Leukemia",0.0296 µM
same,Max fold change,"TF1, Leukemia",16.1
same,CalX2,"THP1, Leukemia",0.132 µM
same,CalX5,"THP1, Leukemia",3.9 µM
same,Max fold change,"THP1, Leukemia",6.3
same,CalX2,"TUR, Lymphoma",0.6984 µM
same,CalX5,"TUR, Lymphoma",3.45 µM
same,Max fold change,"TUR, Lymphoma",17.35
same,CalX2,"UMUC3, Bladder",2.7934 µM
same,CalX5,"UMUC3, Bladder",5.76 µM
same,Max fold change,"UMUC3, Bladder",6.56
same,Induction of apoptosis,variety of cancer cell lines,induce apoptosis
